# Results as given in patent US6677336B2, “Substituted piperazine compounds” (CV Therapeutics, Inc., priority 2000, dated 2004).
# Tested on: mitochondrial fatty acid oxidation (rat heart mitochondria)
# Assay: Palmitoyl CoA oxidation in isolated rat heart mitochondria
# Format: biochemical
# Conditions: 100 μM compound; 15 min at 30° C; DMSO control
# Description: Compounds of this invention were evaluated in a rat heart mitochondiral assay as set forth below.
# Rat heart mitochondria were isolated by the method of Nedergard and Cannon (methods in Enzymol. 55, 3, 1979).
# Palmitoyl CoA oxidation—The Palmityl CoA oxidation was carried out in a total volume of 100 micro liters containing the following agents: 110 mM KCl, 33 mM Tris buffer at pH 8, 2 mM KPi, 2 mM MgCl2, 0.1 mM EDTA, 14.7 microM defatted BSA, 0.5 mM malic acid, 13 mM carnitine, 1 mM ADP, 52 micrograms of mitochondrial protein, and 16 microM 1-C14 palmitoyl CoA (Sp. Activity 60 mCi/mmole; 20 microCi/ml, using 5 microliters per assay). The compounds of this invention were added in a DMSO solution at the following concentrations: 100 microM, 30 microM, and 3 microM. In each assay, a DMSO control was used. After 15 min at 30° C., the enzymatic reaction was centrifuged (20,000 g for 1 min), and 70 microliters of the supernatant was added to an activated reverse phase silicic acid column (approximately 0.5 ml of silicic acid). The column was eluted with 2 ml of water, and 0.5 ml of the eluent was used for scintillation counting to determine the amount of C^14 trapped as C^14 bicarbonate ion.
row,Structure (SMILES),Inhibition of mitochondrial fatty acid oxidation using palmitoyl CoA as substrate - % of Control [%]
1,"COc1cc(NC(=O)CN2CCN(C[C@H](O)COc3ccccc3F)[C@@H](C)C2)cc(OC)c1 [Compound 56, 2-{(3S)-4-[(2S)-3-(2-fluorophenoxy)-2-hydroxypropyl]-3-methylpiperazinyl}-N-(3,5-dimethoxyphenyl)acetamide]",83
2,"C[C@H]1CN(CC(=O)Nc2ccc(Cl)cc2F)CCN1C[C@H](O)COc1ccccc1F [Compound 61, 2-{(3S)-4-[(2S)-3-(2-fluorophenoxy)-2-hydroxypropyl]-3-methylpiperazinyl}-N-(4-chloro-2-fluorophenyl)acetamide]",65
3,"C[C@H]1CN(CC(=O)Nc2ccc3c(c2)CCC3)CCN1C[C@H](O)COc1ccccc1F [Compound 29, 2-{(3S)-4-[(2S)-3-(2-fluorophenoxy)-2-hydroxypropyl]-3-methylpiperazinyl}-N-indan-5-ylacetamide]",51
4,"Cc1ccccc1NC(=O)CN1CCN(C[C@H](O)COc2ccccc2F)[C@@H](C)C1 [Compound 37, 2-{(3S)-4-[(2S)-3-(2-fluorophenoxy)-2-hydroxypropyl]-3-methylpiperazinyl}-N-(2-methylphenyl)acetamide]",55
5,"COc1ccc(NC(=O)CN2CCN(C[C@H](O)COc3ccccc3F)[C@@H](C)C2)c(OC)c1 [Compound 42, 2-{(3S)-4-[(2S)-3-(2-fluorophenoxy)-2-hydroxypropyl]-3-methylpiperazinyl}-N-(2,4-dimethoxyphenyl)acetamide]",68
6,"COc1ccccc1NC(=O)CN1CCN(C[C@H](O)COc2ccccc2F)[C@@H](C)C1 [Compound 53, 2-{(3S)-4-[(2S)-3-(2-fluorophenoxy)-2-hydroxypropyl]-3-methylpiperazinyl}-N-(2-methoxyphenyl)acetamide]",81
7,"C[C@H]1CN(CC(=O)Nc2cccc3ccccc23)CCN1C[C@H](O)COc1ccccc1F [Compound 30, 2-{(3S)-4-[(2S)-3-(2-fluorophenoxy)-2-hydroxypropyl]-3-methylpiperazinyl}-N-naphthylacetamide]",16
8,"COc1ccc(NC(=O)CN2CCN(C[C@H](O)COc3ccccc3F)[C@@H](C)C2)cc1OC [Compound 60, 2-{(3S)-4-[(2S)-3-(2-fluorophenoxy)-2-hydroxypropyl]-3-methylpiperazinyl}-N-(3,4-dimethoxyphenyl)acetamide]",81
9,"CSc1cccc(NC(=O)CN2CCN(C[C@H](O)COc3ccccc3F)[C@@H](C)C2)c1 [Compound 39, 2-{(3S)-4-[(2S)-3-(2-fluorophenoxy)-2-hydroxypropyl]-3-methylpiperazinyl}-N-(3-methylthiophenyl)acetamide]",60
10,"Cc1cccc(C)c1NC(=O)CN1CCN(C[C@H](O)COc2ccccc2F)[C@@H](C)C1 [Compound 25, 2-{(3S)-4-[(2S)-3-(2-fluorophenoxy)-2-hydroxypropyl]-3-methylpiperazinyl}-N-(2,6-dimethylphenyl)acetamide]",77
11,"C[C@H]1CN(CC(=O)Nc2ccccc2-n2cccc2)CCN1C[C@H](O)COc1ccccc1F [Compound 32, 2-{(3S)-4-[(2S)-3-(2-fluorophenoxy)-2-hydroxypropyl]-3-methylpiperazinyl}-N-(2-pyrrolylphenyl)acetamide]",74
